Results taken from US8034818B2, “Therapeutic uses of derivatives of piperidinyl- and piperazinyl-alkyl carbamates” (Sanofi-Aventis, priority 2004, dated 2011).
Structures can show the parent of a compound that is named as a salt.

test system: male OF1 mice; assay: test of analgesia: abdominal tractions induced with PBQ (phenylbenzoquinone) i.p.; type: in vivo, mouse; conditions: (a) 1 mg/kg p.o. at 2 hours, PBQ 2 mg/kg i.p.
Description: The in vivo activity of the compounds of the invention was evaluated in a test of analgesia.
Thus, the intraperitoneal (i.p.) administration of PBQ (phenylbenzoquinone, 2 mg/kg in 0.9% sodium chloride solution containing 5% ethanol) to male OF1 mice weighing 25 to 30 g, causes abdominal tractions, on average 30 torsions or contractions during the period of 5 to 15 minutes after injection. The test compounds are administered orally or intraperitoneally as a 0.5% suspension in Tween 80, 60 minutes or 120 minutes before the administration of PBQ. Under these conditions, the most powerful compounds of the invention produce a 35% to 70% reduction in the number of tractions induced with PBQ, within a dose range of between 1 and 30 mg/kg.

SMILES | Reduction in the number of tractions (%)
CNC(=O)COC(=O)NCCC1CCN(c2cc3ccccc3cn2)CC1 [Compound 166, 2-(Methylamino)-2-oxoethyl 2-[1-(3-isoquinolyl)-4-piperidyl]ethylcarbamate] | −62% (a)

same assay, conditions: (b) 3 mg/kg p.o. at 1 hour, PBQ 2 mg/kg i.p.

SMILES | Reduction in the number of tractions (%)
CNC(=O)COC(=O)NCCC1CCN(c2cccc(C)n2)CC1 [Compound 47, 2-(Methylamino)-2-oxoethyl 2-[1-(6-methyl-2-pyridyl)-4-piperidyl]ethylcarbamate hydrochloride] | −63% (b)
CNC(=O)COC(=O)NCCC1CCN(c2ccc3ccccc3n2)CC1 [Compound 126, 2-(Methylamino)-2-oxoethyl 2-[1-(2-quinolyl)-4-piperidyl]ethylcarbamate] | −43% (b)

test system: not given; assay: not given; conditions: not given

melting point | SMILES
156 to 158 °C | CNC(=O)COC(=O)NCCC1CCN(c2cc3ccccc3cn2)CC1 [Compound 166, 2-(Methylamino)-2-oxoethyl 2-[1-(3-isoquinolyl)-4-piperidyl]ethylcarbamate]
147 to 149 °C | CNC(=O)COC(=O)NCCC1(F)CCN(c2ccc3ccccc3n2)CC1 [Compound 128, 2-(Methylamino)-2-oxoethyl 2-[4-fluoro-1-(2-quinolyl)-4-piperidyl]ethylcarbamate]
125 to 128 °C | CNC(=O)COC(=O)NCCC1CCN(c2ccc3ccccc3n2)CC1 [Compound 126, 2-(Methylamino)-2-oxoethyl 2-[1-(2-quinolyl)-4-piperidyl]ethylcarbamate]
135 to 137 °C | NC(=O)COC(=O)NCCC1CCN(c2ccc3ccccc3n2)CC1 [Compound 127, 2-Amino-2-oxoethyl 2-[1-(2-quinolyl)-4-piperidyl]ethylcarbamate]
135 to 139 °C | NC(=O)COC(=O)NCCC1CCN(c2nccc3cc(F)ccc23)CC1 [Compound 158, 2-Amino-2-oxoethyl 2-[1-(6-fluoro-1-isoquinolyl)-4-piperidyl]ethylcarbamate]
208 to 212 °C (dec.) | CNC(=O)COC(=O)NCC1CCN(c2nccc3ccccc23)CC1 (as salt: hydrochloride) [Compound 154, 2-(Methylamino)-2-oxoethyl [1-(1-isoquinolyl)-4-piperidyl]methylcarbamate hydrochloride]
166 °C | CNC(=O)COC(=O)NCCN1CCN(c2cccc3ccccc23)CC1 (as salt: hydrochloride) [Compound 38, 2-(Methylamino)-2-oxoethyl 2-[4-(1-naphthyl)-1-piperazinyl]ethylcarbamate hydrochloride]
140 to 142 °C | NC(=O)COC(=O)NCCC1CCN(c2cccc(C(F)(F)F)c2)CC1 [Compound 44, 2-Amino-2-oxoethyl 2-{1-[3-(trifluoromethyl)phenyl]-4-piperidyl}ethylcarbamate]
205 to 210 °C | CNC(=O)COC(=O)NCCC1CCN(c2cncc3ccccc23)CC1 (as salt: hydrochloride) [Compound 172, 2-(Methylamino)-2-oxoethyl 2-[1-(4-isoquinolyl)-4-piperidyl]ethylcarbamate hydrochloride]
97 to 99 °C | CNC(=O)COC(=O)NCCC1CCN(c2cccc(CC(C)C)n2)CC1 [Compound 49, 2-(Methylamino)-2-oxoethyl 2-[1-(6-isobutyl-2-pyridyl)-4-piperidyl]ethylcarbamate]
158 to 162 °C | CNC(=O)COC(=O)NCCC1CCN(c2ccc3c(Cl)cccc3n2)CC1 [Compound 130, 2-(Methylamino)-2-oxoethyl 2-[1-(5-chloro-2-quinolyl)-4-piperidyl]ethylcarbamate]
131 to 132 °C | NC(=O)COC(=O)NCC1CCN(c2cccc(-c3ccccc3)n2)CC1 [Compound 58, 2-Amino-2-oxoethyl 2-[1-(6-phenyl-2-pyridyl)-4-piperidyl]methylcarbamate]
189 to 191 °C | NC(=O)COC(=O)NCCC1CCN(c2ccc3cc(Cl)ccc3n2)CC1 [Compound 137, 2-Amino-2-oxoethyl 2-[1-(6-chloro-2-quinolyl)-4-piperidyl]ethylcarbamate]
95 to 100 °C | CNC(=O)COC(=O)NCCC1CCN(c2cccc(C)n2)CC1 (as salt: hydrochloride) [Compound 47, 2-(Methylamino)-2-oxoethyl 2-[1-(6-methyl-2-pyridyl)-4-piperidyl]ethylcarbamate hydrochloride]
